The target of one test is Asp-2 (Homo sapiens, UniProt P56817). The experiment in a line: Asp-2 Inhibitory Assay. It is filed as biochemical. As to conditions: Assay (I), FAM-SEVNLDAEFK-TAMRA substrate, pH 4.5; read-out: inhibition (Asp-2). Here is the method:
(I) Asp-2 Inhibitory Assay
This is prepared by diluting 2 ml of a 2 mM DMSO solution of the substrate into 400 ml of buffer (100 mM Sodium acetate pH=4.5, 1 l Milli-Q water, 0.06% Triton X-100 (0.5 ml/l), pH adjusted to 4.5 using glacial acetic acid). […] This is prepared by diluting 16 ml of a 500 nM enzyme solution into 384 ml of buffer (prepared as above).
Blank wells (enzyme solution replaced by buffer) are included as controls on each plate.
Chain of Asp-2 (P56817 46-501): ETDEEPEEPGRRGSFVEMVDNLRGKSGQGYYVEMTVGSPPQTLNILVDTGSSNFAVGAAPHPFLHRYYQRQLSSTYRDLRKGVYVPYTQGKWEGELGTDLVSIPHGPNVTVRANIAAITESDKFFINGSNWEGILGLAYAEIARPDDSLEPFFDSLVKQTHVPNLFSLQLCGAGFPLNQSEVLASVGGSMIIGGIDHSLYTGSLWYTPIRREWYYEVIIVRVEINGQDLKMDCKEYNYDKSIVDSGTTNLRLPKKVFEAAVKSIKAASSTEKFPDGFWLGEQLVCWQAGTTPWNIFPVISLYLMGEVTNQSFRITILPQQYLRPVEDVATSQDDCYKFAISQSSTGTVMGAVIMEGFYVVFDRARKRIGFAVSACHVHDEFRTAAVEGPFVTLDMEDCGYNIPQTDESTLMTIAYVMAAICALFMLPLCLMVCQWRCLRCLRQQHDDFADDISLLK
For the compound `CCCCNc1cc(C(=O)N[C@@H](Cc2ccccc2)[C@H](O)CN[C@@H](C)C(=O)NC2CCCCC2)cc(N2CCCC2=O)c1` [Example E56, N-[(1S,2R)-1-Benzyl-3-((S)-1-cyclohexylcarbamoylethylamino)-2-hydroxypropyl]-3-butylamino-5-(2-oxopyrrolidin-1-yl)benzamide], the IC50 was in the range of 1 to 50 nM.
With `CCC(CC)Nc1cc(C(=O)N[C@@H](Cc2ccccc2)[C@H](O)CN[C@@H](C)C(=O)NC2CCCCC2)cc(N2CCCC2=O)c1` [Example E55, N-[(1S,2R)-1-Benzyl-3-((S)-1-cyclohexylcarbamoylethylamino)-2-hydroxypropyl]-3-(1-ethylpropylamino)-5-(2-oxopyrrolidin-1-yl)benzamide], the IC50 fell in the range of 1 to 50 nM.
The same measure, in the same setting: in the case of `CCCCCNc1cc(C(=O)N[C@@H](Cc2ccccc2)[C@H](O)CN[C@@H](C)C(=O)NC2CCCCC2)cc(N2CCCC2=O)c1` [Example E54, N-[(1S,2R)-1-Benzyl-3-((S)-1-cyclohexylcarbamoylethylamino)-2-hydroxypropyl]-3-(2-oxopyrrolidin-1-yl)-5-pentylaminobenzamide] it was 1 to 50 nM; in that of `O=C(NC(Cc1ccccc1)C(O)CNCc1cccc(C(F)(F)F)c1)c1cc(C2CCCC2)cc(N2CCCC2=O)c1` (centres unmarked) [Example E22, N-[1-Benzyl-2-hydroxy-3-(3-trifluoromethylbenzylamino)propyl]-3-cyclopentyl-5-(2-oxopyrrolidin-1-yl)benzamide], 1 to 50 nM.
In the case of `CCCC[C@H](NC[C@@H](O)[C@H](Cc1ccccc1)NC(=O)c1cc(OC(C)C)cc(N2CCCC2=O)c1)C(=O)NCC(C)C` [Example E179, N-[(1S,2R)-1-Benzyl-2-hydroxy-3-((S)-1-isobutylcarbamoyl-pentylamino)-propyl]-3-isopropoxy-5-(2-oxopyrrolidin-1-yl)benzamide], the IC50 lay within 1 to 50 nM.
Same read-out and setting: the result for `CC(C)CCCC(C)NC[C@@H](O)[C@H](Cc1ccccc1)NC(=O)c1cc(NC(C)C)cc(N2CCCC2=O)c1` (stereo partly drawn) [Example E60, N-[(1S,2R)-1-Benzyl-3-(1,5-dimethylhexylamino)-2-hydroxypropyl]-3-isopropylamino-5-(2-oxopyrrolidin-1-yl)benzamide] reads 1 to 50 nM.
On to `C[C@H](NC[C@@H](O)[C@H](Cc1ccccc1)NC(=O)c1cc(C2CCCC2)cc(N2CCCC2=O)c1)C(=O)NC1CCCCC1` [Example E12, N-[(1S,2R)-1-Benzyl-3-((S)-1-cyclohexylcarbamoylethylamino)-2-hydroxypropyl]-3-cyclopentyl-5-(2-oxopyrrolidin-1-yl)benzamide], for which the IC50 was in the range of 1 to 50 nM.

Staying with this test, now noted: inhibition (Asp-2), Assay (I), FAM-SEVNLDAEFK-TAMRA substrate, pH 4.5.
`CCNc1cc(C(=O)N[C@@H](Cc2ccccc2)[C@H](O)CNCc2cccc(OC(F)(F)F)c2)cc(N2CCCC2=O)c1` [Example E86, N-[(1S,2R)-1-Benzyl-2-hydroxy-3-(3-trifluoromethoxybenzylamino)-propyl]-3-ethylamino-5-(2-oxopyrrolidin-1-yl)benzamide] returned an IC50 of 1 to 50 nM.

These data come from patent US7253198B2, “Hydroxyethylamine derivatives for the treatment of Alzheimer's disease” (Glaxo Group Limited, priority 2002, dated 2007).
